From patent US12286442B2, “Methods and materials for increasing transcription factor eb polypeptide levels” (University of Pittsburgh—Of the Commonwealth System of …, priority 2019, dated 2025)

How the values were obtained:
TFEB = assay: High content screen measuring TFEB nuclear accumulation (TFEB nuclear/cytosol ratio) in BEAS-2B cells stably expressing TFEB-EGFP; format: cell-based, human; details: 18 hours incubation
In short: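 Readout: lowest compound concentration giving a 25% rise in nuclear/cytosol TFEB-GFP ratio, from DAPI-masked nuclear and mask-expanded cytosolic signals. Cells (BEAS-2B, TFEB-EGFP stable, ~2300–2500/well) rested 8 hours, then treated 18 hours with compound serial dilutions in 2% FBS medium before PFA fixation and DAPI staining.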

BEAS-2B cells = assay: Toxicity: compound concentration needed to induce greater than 50 percent of cell loss; format: cell-based, human; details: 18 hours incubation
In short: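 Reported value is the concentration giving greater than 50 percent cell loss, grouped into bins (≥25 μM; between 1 and 25 μM; ≤1 μM as "+++"). Measured by high-content imaging of DAPI-stained BEAS-2B TFEB-EGFP cells fixed after 18 h compound exposure.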

Compound	efficacy (minimal compound concentration needed to increase TFEB nuclear/cytosol ratio by 25%) (TFEB)	toxicity (compound concentration needed to induce greater than 50 percent of cell loss) (BEAS-2B cells)
c1cnc2ccc(Nc3nc(-c4ccncc4)nc4ccncc34)cc2c1 [Compound 127]	++ (“++” equals between ≤25 μM and >1 μM)	+ (cell loss of greater than 50 percent at a concentration that equals or is greater than 25 μM was represented as)
Cc1nc2ccc(Nc3nc(-c4ccncc4)nc4ncccc34)cc2s1 [Compound 128]	+++ (“+++” equals ≤1 μM)	+ (cell loss of greater than 50 percent at a concentration that equals or is greater than 25 μM was represented as)
CCc1nc2ccc(Nc3nc(-c4ccncc4)nc4ncccc34)cc2s1 [Compound 129]	+++ (“+++” equals ≤1 μM)	+ (cell loss of greater than 50 percent at a concentration that equals or is greater than 25 μM was represented as)
CC(C)c1nc2ccc(Nc3nc(-c4ccncc4)nc4ncccc34)cc2s1 [Compound 130]	+++ (“+++” equals ≤1 μM)	+ (cell loss of greater than 50 percent at a concentration that equals or is greater than 25 μM was represented as)
c1cnc2nc(-c3ccncc3)nc(Nc3ccc4nc(C5CC5)sc4c3)c2c1 [Compound 131]	+++ (“+++” equals ≤1 μM)	+ (cell loss of greater than 50 percent at a concentration that equals or is greater than 25 μM was represented as)
c1cnc2nc(-c3ccncc3)nc(Nc3ccc4ncsc4c3)c2c1 [Compound 132]	+++ (“+++” equals ≤1 μM)	+ (cell loss of greater than 50 percent at a concentration that equals or is greater than 25 μM was represented as)
CC(C)(C)c1cc2cc(Nc3nc(-c4ccncc4)nc4ncccc34)ccc2[nH]1 [Compound 134]	+++ (“+++” equals ≤1 μM)	+ (cell loss of greater than 50 percent at a concentration that equals or is greater than 25 μM was represented as)
c1cnc2nc(-c3ccncc3)nc(Nc3ccc4cn[nH]c4c3)c2c1 [Compound 135]	++ (“++” equals between ≤25 μM and >1 μM)	+ (cell loss of greater than 50 percent at a concentration that equals or is greater than 25 μM was represented as)
c1cnc2nc(-c3ccncc3)nc(Nc3ccc4cnsc4c3)c2c1 [Compound 136]	+++ (“+++” equals ≤1 μM)	+ (cell loss of greater than 50 percent at a concentration that equals or is greater than 25 μM was represented as)
Cc1c(Nc2nc(-c3ccncc3)nc3ncccc23)ccc2[nH]ccc12 [Compound 137]	+++ (“+++” equals ≤1 μM)	+ (cell loss of greater than 50 percent at a concentration that equals or is greater than 25 μM was represented as)
c1cnc2ccc(Nc3nc(-c4ccncc4)nc4ncccc34)cc2c1 [Compound 138]	+++ (“+++” equals ≤1 μM)	+ (cell loss of greater than 50 percent at a concentration that equals or is greater than 25 μM was represented as)
c1cc(-c2nc(Nc3ccc4cnsc4c3)c3cnccc3n2)ccn1 [Compound 139]	+ (“+” equals >25 μM)	+ (cell loss of greater than 50 percent at a concentration that equals or is greater than 25 μM was represented as)
Cc1nc2ccc(Nc3nc(-c4ccncc4)nc4ccncc34)cc2o1 [Compound 140]	+ (“+” equals >25 μM)	+ (cell loss of greater than 50 percent at a concentration that equals or is greater than 25 μM was represented as)
Cn1cnc2ccc(Nc3nc(-c4ccncc4)nc4ccccc34)cc21 [Compound 141]	+++ (“+++” equals ≤1 μM)	++ (cell loss of greater than 50 percent at a concentration less than 25 μM and greater than 1 μM was represented as)
c1ccc2c(Nc3ccc4ncoc4c3)nc(-c3ccncc3)nc2c1 [Compound 142]	+++ (“+++” equals ≤1 μM)	+ (cell loss of greater than 50 percent at a concentration that equals or is greater than 25 μM was represented as)
Cc1nc2cc(Cl)c(Nc3nc(-c4ccncc4)nc4ccccc34)cc2o1 [Compound 143]	+++ (“+++” equals ≤1 μM)	+ (cell loss of greater than 50 percent at a concentration that equals or is greater than 25 μM was represented as)
Cc1nc2cc(Cl)c(Nc3nc(-c4ccncc4)nc4ccncc34)cc2o1 [Compound 144]	+ (“+” equals >25 μM)	+ (cell loss of greater than 50 percent at a concentration that equals or is greater than 25 μM was represented as)
Cc1nc2cc(Cl)c(Nc3nc(-c4ccncc4)nc4ncccc34)cc2o1 [Compound 145]	+++ (“+++” equals ≤1 μM)	+ (cell loss of greater than 50 percent at a concentration that equals or is greater than 25 μM was represented as)
Cc1nc2ccc(Nc3nc(-c4ccncc4)nc4ncccc34)cc2o1 [Compound 146]	+++ (“+++” equals ≤1 μM)	+ (cell loss of greater than 50 percent at a concentration that equals or is greater than 25 μM was represented as)
CCc1nc2ccc(Nc3nc(-c4ccncc4)nc4ccc(C)cc34)cc2s1 [Compound 147]	++ (“++” equals between ≤25 μM and >1 μM)	+ (cell loss of greater than 50 percent at a concentration that equals or is greater than 25 μM was represented as)
CCc1nc2ccc(Nc3nc(-c4ccncc4)nc4c(C)cccc34)cc2s1 [Compound 148]	+++ (“+++” equals ≤1 μM)	+ (cell loss of greater than 50 percent at a concentration that equals or is greater than 25 μM was represented as)
CCc1nc2ccc(Nc3nc(-c4ccncc4)nc4ccc(OC)cc34)cc2s1 [Compound 149]	++ (“++” equals between ≤25 μM and >1 μM)	++ (cell loss of greater than 50 percent at a concentration less than 25 μM and greater than 1 μM was represented as)
CCc1nc2ccc(Nc3nc(-c4ccncc4)nc4cc(OC)ccc34)cc2s1 [Compound 150]	+++ (“+++” equals ≤1 μM)	++ (cell loss of greater than 50 percent at a concentration less than 25 μM and greater than 1 μM was represented as)
CCc1nc2ccc(Nc3nc(-c4ccncc4)nc4ccc(F)cc34)cc2s1 [Compound 151]	+++ (“+++” equals ≤1 μM)	+ (cell loss of greater than 50 percent at a concentration that equals or is greater than 25 μM was represented as)
COc1cccc2nc(-c3ccncc3)nc(Nc3ccc4nc(C(C)C)sc4c3)c12 [Compound 152]	++ (“++” equals between ≤25 μM and >1 μM)	+ (cell loss of greater than 50 percent at a concentration that equals or is greater than 25 μM was represented as)
COc1cccc2c(Nc3ccc4nc(C(C)C)sc4c3)nc(-c3ccncc3)nc12 [Compound 153]	++ (“++” equals between ≤25 μM and >1 μM)	+ (cell loss of greater than 50 percent at a concentration that equals or is greater than 25 μM was represented as)
Cc1ccc2nc(-c3ccncc3)nc(Nc3ccc4nc(C(C)C)sc4c3)c2c1 [Compound 154]	+++ (“+++” equals ≤1 μM)	+ (cell loss of greater than 50 percent at a concentration that equals or is greater than 25 μM was represented as)
Cc1cccc2c(Nc3ccc4nc(C(C)C)sc4c3)nc(-c3ccncc3)nc12 [Compound 155]	+++ (“+++” equals ≤1 μM)	+ (cell loss of greater than 50 percent at a concentration that equals or is greater than 25 μM was represented as)
Cc1cccc2c(Nc3cc(F)c4[nH]ccc4c3)nc(-c3ccncc3)nc12 [Compound 156]	+++ (“+++” equals ≤1 μM)	+ (cell loss of greater than 50 percent at a concentration that equals or is greater than 25 μM was represented as)
